From ChEMBL document CHEMBL1201862, “PubChem BioAssay data set” (2004)
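All cell lines were grown in 96-well plates and treated with compound for 48 hours. GI50 marks 50% less growth.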 Activity calls are given as the source filed them. No stated cut-off is given here; in the data, active = GI50 up to about 1.1 µM and inactive = higher.

Experiments:
Test in all cases: growth of human tumour cells (NCI), 48 h
786-0 = test system: 786-0
A549 = test system: A549
CAKI-1 = test system: CAKI-1
DU-145 = test system: DU-145
HL-60 = test system: HL-60
K562 = test system: K562
KM12 = test system: KM12
M14 = test system: M14
MOLT-4 = test system: MOLT-4
NCI-H460 = test system: NCI-H460
PC-3 = test system: PC-3
SF-268 = test system: SF-268
SF-539 = test system: SF-539
SK-MEL-2 = test system: SK-MEL-2
SN12C = test system: SN12C
SW-620 = test system: SW-620
T47D = test system: T47D
U-251 = test system: U-251
RXF 393 = test system: RXF 393
UO-31 = test system: UO-31

Compound | GI50 (786-0) | GI50 (A549) | GI50 (CAKI-1) | GI50 (DU-145) | GI50 (HL-60) | GI50 (K562) | GI50 (KM12) | GI50 (M14) | GI50 (MOLT-4) | GI50 (NCI-H460) | GI50 (PC-3) | GI50 (SF-268) | GI50 (SF-539) | GI50 (SK-MEL-2) | GI50 (SN12C) | GI50 (SW-620) | GI50 (T47D) | GI50 (U-251) | GI50 (RXF 393) | GI50 (UO-31)
COC1C(OC(=O)c2ccc(C)[nH]2)C(O)C(Oc2ccc3c(O)c(NC(=O)c4ccc(O)c(CC=C(C)C)c4)c(=O)oc3c2Cl)OC1(C)C (stereo unspecified) | 15.8 µM (inactive) | 24.3 µM (inactive) | 18.7 µM (inactive) | 31 µM (inactive) | 26.3 µM (inactive) | 29.6 µM (inactive) | 12.5 µM (inactive) | 16 µM (inactive) | 16.2 µM (inactive) | 21.2 µM (inactive) | 12.9 µM (inactive) | 17.3 µM (inactive) | 18 µM (inactive) | 13.2 µM (inactive) | 20.7 µM (inactive) | 18.5 µM (inactive) | 15.9 µM (inactive) | 12.8 µM (inactive) |  | 
COC(=O)C1CC2CC(=NNC(N)=O)CC2C1 (stereo unspecified) | > 100 µM (inactive) | > 100 µM (inactive) | > 100 µM (inactive) |  | > 100 µM (inactive) | > 100 µM (inactive) | > 100 µM (inactive) | > 100 µM (inactive) | > 100 µM (inactive) | > 100 µM (inactive) |  | > 100 µM (inactive) | > 100 µM (inactive) | > 100 µM (inactive) | > 100 µM (inactive) | > 100 µM (inactive) |  | > 100 µM (inactive) | > 100 µM (inactive) | > 100 µM (inactive)
C[C@]12CC[C@@H]3c4ccc(OC(=O)c5ccccc5)cc4CC[C@H]3[C@@H]1CC[C@@H]2Oc1c2ccccc2nc2ccccc12 | 7.66 µM (inactive) | 6.62 µM (inactive) | 9.73 µM (inactive) | 9.23 µM (inactive) | 2.95 µM (inactive) | 6.38 µM (inactive) | 14 µM (inactive) | 7.43 µM (inactive) | 8.87 µM (inactive) | 8.53 µM (inactive) | 8.93 µM (inactive) | 3.93 µM (inactive) |  | 16.2 µM (inactive) |  | 16.9 µM (inactive) |  | 8.41 µM (inactive) | 8.09 µM (inactive) | 13.2 µM (inactive)
C[n+]1c(-c2ccccc2)cc2/c(=C\c3ccccc3)c3ccccc3n21 | 0.906 µM (active) | 3.96 µM (inactive) | 2.94 µM (inactive) | 2.54 µM (inactive) | 0.0452 µM (active) | 7.03 µM (inactive) | 0.738 µM (active) | 1.27 µM (inactive) | 1.73 µM (inactive) |  | 0.918 µM (active) | 0.593 µM (active) | 0.908 µM (active) | 0.832 µM (active) | 0.308 µM (active) | 1.06 µM (active) |  | 0.233 µM (active) | 1.36 µM (inactive) | 2.95 µM (inactive)
COCCN(C(C)=O)C1CCC2(SCCS2)c2[nH]c3ccccc3c21 (stereo unspecified) | > 100 µM (inactive) | > 100 µM (inactive) | > 100 µM (inactive) | > 100 µM (inactive) | > 100 µM (inactive) | > 100 µM (inactive) | > 100 µM (inactive) |  | 56.9 µM (inactive) | 77.6 µM (inactive) | > 100 µM (inactive) | > 100 µM (inactive) | > 100 µM (inactive) |  | > 100 µM (inactive) | > 100 µM (inactive) |  | > 100 µM (inactive) | > 100 µM (inactive) | 
COc1ccc(C2OCCN2C)cc1 (stereo unspecified) | > 100 µM (inactive) | > 100 µM (inactive) | > 100 µM (inactive) |  |  | > 100 µM (inactive) | > 100 µM (inactive) | > 100 µM (inactive) | > 100 µM (inactive) | 87.1 µM (inactive) | > 100 µM (inactive) | > 100 µM (inactive) | > 100 µM (inactive) | > 100 µM (inactive) |  | > 100 µM (inactive) | > 100 µM (inactive) | > 100 µM (inactive) | > 100 µM (inactive) | > 100 µM (inactive)
CC1=C/C(=N\O)C(C(O)(C(F)(F)F)C(F)(F)F)C(C)(C)C1 (stereo unspecified) | > 10 µM (inactive) | > 10 µM (inactive) | > 10 µM (inactive) | > 10 µM (inactive) |  | > 10 µM (inactive) | > 10 µM (inactive) | > 10 µM (inactive) | > 10 µM (inactive) | > 10 µM (inactive) | > 10 µM (inactive) | > 10 µM (inactive) | > 10 µM (inactive) |  | > 10 µM (inactive) | > 10 µM (inactive) | > 10 µM (inactive) | > 10 µM (inactive) |  | > 10 µM (inactive)
Nc1cc(N2CCCC2)nc(=O)n1-c1ccccc1 | > 100 µM (inactive) | > 100 µM (inactive) | > 100 µM (inactive) | > 100 µM (inactive) | > 100 µM (inactive) | > 100 µM (inactive) | > 100 µM (inactive) | > 100 µM (inactive) | > 100 µM (inactive) | > 100 µM (inactive) | > 100 µM (inactive) |  | > 100 µM (inactive) | > 100 µM (inactive) | > 100 µM (inactive) | > 100 µM (inactive) |  | > 100 µM (inactive) |  | 
CC(=O)Oc1c(C)cc(-c2cc(C)c(OC(C)=O)c(C)c2)cc1C | 36.3 µM (inactive) | 42.4 µM (inactive) | 57.9 µM (inactive) | 41.7 µM (inactive) | 35.2 µM (inactive) | > 100 µM (inactive) | 17.9 µM (inactive) | 31.1 µM (inactive) | > 100 µM (inactive) | 39.9 µM (inactive) | 14.1 µM (inactive) | 36 µM (inactive) |  | 41.6 µM (inactive) | 47.1 µM (inactive) | 10.2 µM (inactive) |  | 15 µM (inactive) |  | 26.9 µM (inactive)
COc1ccc(CNC(=O)NCn2cc(-c3ccccc3)nn2)cc1 | > 100 µM (inactive) | > 100 µM (inactive) | > 100 µM (inactive) | > 100 µM (inactive) | > 100 µM (inactive) | > 100 µM (inactive) | > 100 µM (inactive) | > 100 µM (inactive) | > 100 µM (inactive) | > 100 µM (inactive) | > 100 µM (inactive) | > 100 µM (inactive) | > 100 µM (inactive) | > 100 µM (inactive) | > 100 µM (inactive) | > 100 µM (inactive) |  | > 100 µM (inactive) |  | 
O=C(O)C12C3C4(C(=O)O)C1C1(C(=O)O)C2C3(C(=O)O)C41 (stereo unspecified) | > 100 µM (inactive) | > 100 µM (inactive) | > 100 µM (inactive) | > 100 µM (inactive) | > 100 µM (inactive) | < 0.01 µM (active) | > 100 µM (inactive) | > 100 µM (inactive) | > 100 µM (inactive) | > 100 µM (inactive) | > 100 µM (inactive) | > 100 µM (inactive) | > 100 µM (inactive) | > 100 µM (inactive) | > 100 µM (inactive) | > 100 µM (inactive) | > 100 µM (inactive) | > 100 µM (inactive) |  | > 100 µM (inactive)
COc1ccccc1-c1c(C#N)c(N)[nH]c(=S)c1C#N | 50.7 µM (inactive) | 83 µM (inactive) | > 100 µM (inactive) | > 100 µM (inactive) | 34.7 µM (inactive) | 14.4 µM (inactive) | 62.8 µM (inactive) | 78.2 µM (inactive) | 11.5 µM (inactive) | 67 µM (inactive) | 32.1 µM (inactive) | 47.6 µM (inactive) | > 100 µM (inactive) | 37 µM (inactive) | 25.4 µM (inactive) | 27.4 µM (inactive) |  | 48.1 µM (inactive) | 34.4 µM (inactive) | 93.1 µM (inactive)
Nc1ncnc2c1ncn2C1OC(COC2C(CO)OC(OC(C(=O)O)C(O)C(OP(=O)(O)O)C(O)C(=O)O)C(O)C2O)C(O)C1O (stereo unspecified) | > 100 µM (inactive) | > 100 µM (inactive) | > 100 µM (inactive) |  | > 100 µM (inactive) | > 100 µM (inactive) | > 100 µM (inactive) | > 100 µM (inactive) | > 100 µM (inactive) | > 100 µM (inactive) | > 100 µM (inactive) | > 100 µM (inactive) | 90.2 µM (inactive) | > 100 µM (inactive) |  | > 100 µM (inactive) |  | > 100 µM (inactive) |  | 
COC(=O)[C@@H]1[C@H](O)CCC2=C(CC(=O)c3ccoc3)[C@H](C)CC[C@]21C | > 50 µM (inactive) | > 50 µM (inactive) | > 50 µM (inactive) |  |  | 16.8 µM (inactive) | 36.1 µM (inactive) | 41.2 µM (inactive) |  | 23.9 µM (inactive) | 23.4 µM (inactive) |  | > 50 µM (inactive) | > 50 µM (inactive) | > 50 µM (inactive) | 36.9 µM (inactive) |  | 41.2 µM (inactive) | 41.7 µM (inactive) | 19.5 µM (inactive)
CCOc1cc(/C=N\N(C)C)cc(/C=N\N(C)C)c1O | 42.7 µM (inactive) | > 100 µM (inactive) | 18.3 µM (inactive) | > 100 µM (inactive) | 52.5 µM (inactive) | > 100 µM (inactive) | > 100 µM (inactive) | 40.2 µM (inactive) | 61 µM (inactive) | 30.1 µM (inactive) | 33.2 µM (inactive) | 19.8 µM (inactive) | 20.6 µM (inactive) | 28.2 µM (inactive) | 54 µM (inactive) | 53.3 µM (inactive) | 11.7 µM (inactive) | 33.7 µM (inactive) |  | 29.4 µM (inactive)
CCN(CC)CCC(=O)Nc1ccc2sc3ccccc3c(=O)c2n1 | 12.5 µM (inactive) | 17.3 µM (inactive) | 14 µM (inactive) | 23.4 µM (inactive) | 7.98 µM (inactive) | 11 µM (inactive) | 16.3 µM (inactive) | 13.8 µM (inactive) | 7.78 µM (inactive) | 23.1 µM (inactive) | 15.4 µM (inactive) | 17.1 µM (inactive) | 18 µM (inactive) | 19.8 µM (inactive) | 23 µM (inactive) | 12 µM (inactive) | 16.1 µM (inactive) | 14.9 µM (inactive) |  | 10.4 µM (inactive)
